What was measured:
human sperm [1] = experiment: Sperm chemotaxis assay with phage displaying the peptide (two-chamber apparatus); format: cell-based; conditions: 37° C. for 1 hr; for sperm count in the lower chamber: one experiment done in triplicate, phage displaying peptide
Protocol: (§1) Preparation of sperm: One tube (0.5 ml) of a sperm sample was thawed at room temperature for 15-20 mm. As soon as the sperm was thawed, 0.5 ml of Hams-F10 medium was added, and the sample transferred to a 5 ml culture tube. The sperm was diluted to 4 ml with Hams-F10 medium, mixed well, and centrifuged at 2000 rpm for 5 mm. The supernatant was decanted and the cells resuspended in 4 ml of fresh Hams-F 10 medium. The centrifugation was repeated and the clean sperm pellet resuspended in 1 ml Hams-F10 medium. A 50 μl sample aliquot was used per each assay condition.
Assay: The chambers of the assay apparatus were assembled with 8.iM membranes pre-wetted with Hams-F10 medium. A sample of phage containing a specific peptide sequence or a control peptide sequence was diluted with Hams-F10 medium to give a 100 ml phage containing solution which was placed in the bottom chamber of the apparatus. A sperm sample having at least 1×10^6 sperm was added to the upper chamber. After incubation 37° C. for 1 hr, the sample in the bottom chamber was collected into microfuge tubes and centrifuged at 6000 rpm for 5 mm. The supernatant was removed and the pellet resuspended in suitable volume to be counted in a hemocytometer.
Results: Various concentrations of phage containing the Husap peptide (TMGFTAPRFPHY; SEQ. ID. NO. 1), phage containing a control sequence (KSLSRHDHIHHH; SEQ. ID. NO. 20) or buffer without phage were used in the assays. Sperm counts 2-15 fold greater in the well containing the Husap peptide displaying phage were consistently obtained when compared to control phage or buffer-alone chambers. For example, in one experiment done in triplicate, the sperm count in the lower chamber was 76×10^4 for the Husap peptide compared to 5×10^4 for the control peptide and 21×10^4 for buffer alone.

human sperm [2] = experiment: Effect of varying concentrations of Husap peptide on chemotaxis of human sperm; format: cell-based; conditions: 2.8×10^6 sperm in upper chamber, 5 micron membrane, 37° C. 1 h
Protocol: as §1
The effect of varying concentrations of the Husap peptide on chemotaxis of human sperm was also determined. Sperm at a concentration of 2.8×10^6 were added to the upper chamber. The peptide concentration in the lower chamber was varied from 0 μl to […] of peptide. Sperm were separated from the lower chamber by a 5 micron membrane filter. The chambers were incubated at 37° C. for 1 h. At the end of the incubation, sperm were collected from the lower chamber and counted in a hemocytometer. The experiment was performed several times with varying peptide concentrations and with 5 and 8 micron membranes.

| Substance | sperm count in the lower chamber (human sperm [1]) | Sperm counts, fold greater compared to control phage or buffer-alone chambers (human sperm [1]; phage displaying peptide in bottom chamber, various phage concentrations) | Sperm Count in Lower Chamber (human sperm [2]; HusaP concentration 10 uM) | Sperm Count in Lower Chamber (human sperm [2]; HusaP concentration 20 uM) | Sperm Count in Lower Chamber (human sperm [2]; HusaP concentration 100 uM) |
| --- | --- | --- | --- | --- | --- |
| KSLSRHDHIHHH [control peptide, reference compound] | 5×10^4 | – | – | – | – |
| NH2-Thr-Met-Gly-Phe-Thr-Ala-Pro-Arg-Phe-Pro-His-Tyr-COOH (H-TMGFTAPRFPHY-OH; listed as Homo sapiens) [Husap peptide, human sperm chemotactic peptide …] | 76×10^4 | 2-15 fold | 6 × 10^4 | 12 × 10^4 | 52 × 10^4 |

Reference: patent US20030092077A1, “Human sperm activator peptides” (priority 2001, published 2003)
